Reference: PMC6044923 (ACS Omega, 2017)

Target: amyloid-β (Aβ(1–42)) (Homo sapiens, UniProt P05067)
Experiment: SPR aggregation assay
Assay type: biochemical

Sequence of amyloid-β (Aβ(1–42)) (P05067 672-713): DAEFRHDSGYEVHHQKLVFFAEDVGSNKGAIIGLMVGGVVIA

C[n+]1ccc(-c2c3nc(c(-c4cc[n+](C)cc4)c4ccc([nH]4)c(-c4cc[n+](C)cc4)c4nc(c(-c5cc[n+](C)cc5)c5ccc2[nH]5)C=C4)C=C3)cc1 [TMPyP, 5,10,15,20-tetrakis(N-methyl-4-pyridyl)porphyrin]
IC50: 430 nM
